# In article PMC11423305, “Structure-Based Design of CBP/EP300 Degraders: When Cooperativity Overcomes Affinity” (JACS Au, 2024):
# System: crebbp and ep300 expression
# Test: Gene expression analysis by RT-qPCR in LP1 cells
# Format: cell-based
# Details: 16 h, 1 μM, normalized to hprt
# Description: cooperativity factor (α) was defined as the ratio of the IC50 values in the absence and […]
# For the ternary complex experiments, the final assay composition was: 0.1 % DMSO, 5 nM GST-CBP, 5 nM CRBN-Avi(biotin), 100 mM KF, 0.625 nM XL665-Streptavidin conjugate and 0.8 nM anti-GST mAb – Eu3+-cryptate. The maximal control contained 40 nM dCBP-1, the blank contained no PROTAC. Hook curves were generated by normalization to the maximal control.
# LP1 cells were cultured in DMEM (Gibco, 41966-029) supplemented with 15 % FBS (Sigma, F9665); MM1S and LNCaP cells in RPMI 1640 ATCC modification (Gibco, […]
# DMEM/F12 (Gibco, 11320074) supplemented with 1 % non-essential amino acids […]
# Quantification of CBP/EP300 degradation by Western blotting
# LP1 cells plated on 6 well plates were treated with the stated compounds at a final concentration of 0.1 % DMSO for the stated time. […] Protein concentrations were determined using the Pierce ™ BCA Protein Assay Kit (Thermo Scientific, 23227) and equal amounts were separated on 4-12 % ExpressPl us™ PAGE gels (GenScript, M41215). […]
# SuperSignal™ West Pico PLUS Chemiluminescent Substrate (Thermo Scientific, 34580) and the Vilber Fusion-FX7 imager. Bands were quantified using ImageJ software and protein levels normalized to protein from DMSO treated cells run on the same membrane. […]
compound,measurement,value
Cc1cc2c(NC(=O)c3cc(NC(=O)CCCCCCCCCCNc4cccc5c4C(=O)N(C4CCC(=O)NC4=O)C5=O)cc(-c4ccn(C)n4)c3)cccc2nn1 (stereo not shown) [dCE-2],crebbp and ep300 expression,mild upregulation
